Tests used:
[1] = target: T1, Histamine-1 Receptors on Hela-S3 Cells (Homo sapiens, UniProt P35367); assay: Inhibition of [^3 H]-Pyrilamine Binding to Histamine-1 Receptors on Hela-S3 Cells; details: 0.5 h, 1 μM test compound, 37° C., 30 minutes, read-out: % Specific Binding
T1 construct: histamine-1 receptors on Hela-S3 cells (American Type Culture Collection); endogenous in cells; host or cells: HeLa S3 cells (American Type Culture Collection), intact cell suspension
Procedure: Inhibition of [^3 H]-Pyrilamine Binding to Histamine-1 Receptors on Hela-S3 Cells
The inhibition of [^3 H]-pyrilamine binding to histamine-1 receptors on Hela-S3 cells (American Type Culture Collection) was determined by isotopic labelling and filtration techniques. A suspension of the cells in buffer (25 ml, 0.5% Bovine Serum Albumin, 0.1% sodium azide, phosphate buffered saline (PBS)) was centrifuged at 1000 rpm for 5 minutes in a JOUAN CR 422 centrifuge, collected, resuspended in buffer (25 ml) and spun again. The cells were counted using a haemocytometer and resuspended in buffer to provide a final concentration of 4.5×10^6 cells ml^-1. A portion of the Hela S3 cell suspension (1 ml) was added to each assay tube containing 25 μl of vehicle (50% DMSO/buffer) or 25 μl of solution containing test compound (dissolved in DMSO and diluted with sufficient PBS to give a final test concentration of 1 μM) and 25 μl 0f [^3 H]-pyrilamine (supplied by Amersham International and diluted with PBS to 3 nM). The tubes were mixed and incubated at 37° C. for 30 minutes. The tubes were then spun at 4° C. at 2000 rpm for 2 minutes. The supematant was removed and the cells resuspended in buffer (repeated x2). The cells were suspended in 300 μl of a 2:1 solution of 1M sodium hydroxide and 1% sodium dodecyl sulphate. The tubes were left overnight before the contents were tranferred to a scintillation vial, treated with 10 ml, OPTIPHASE MP scintillation fluid (OPTIPHASE MP is a trade mark) and the radioactivity counted in a scintillation counter. Non-displcable binding (NDB) was determined using Astemizole (5×10^-5 M) in place of test compounds. Defining the counts for total binding from the vehicle control sample as "TB" and the counts for total binding with antagonist as "TBA" the percentage specific binding (%SB) can be determined from the following equation. [formula] Results

[2] = system: PAF-Induced Platelet Aggregation; assay: Inhibition of PAF-Induced Platelet Aggregation; type: cell-based, rabbit (male New Zealand White); details: Oryctolagus cuniculus; rabbit platelet-rich plasma, PAF 100 ng.ml^-1 (50 μl aliquot), 37° C.
Procedure: Inhibition of PAF-Induced Platelet Aggregation
Male New Zealand White rabbits (3.0-3.5 kg) were anaesthetised by intravenous administration of sodium pentobarbitone, […], via a marginal ear vein. The trachea was exposed and connected to a respiratory pump (Havard UK) to provide artificial ventilation. A carotid artery was exposed and cannulated and the animal was exsanguinated. Whole blood was collected in a syringe containing tri-sodium citrate (3.8% w/v) to a ratio of 1 part citrate:9 parts blood.
Collected blood was centrifuged at 180×g for 15 minutes at room temperature (21° C.) to prepare platelet-rich plasma (PRP). The remaining blood was then centrifuged at 1800×g for 10 minutes at room temperature to obtain platelet poor plasma (PPP).
Platelet count of the PRP was measured using a Technicon H1 blood cell differential analyser (Bayer Diagnostics UK) and adjusted with PPP to obtain a final platelet count of 500,000 platelets per μl of plasma, this being the normal physiological platelet count for rabbits. Corrected PRP was left to equilibrate at room temperature for 30 minutes before use.
Aggregation studies were carried out using 4-channel aggregometer (PAP-4C, BioData USA) as follows: 400 μl aliquots of PRP were placed in siliconised cuvettes and incubated to 37° C. for 1 to 2 minutes in the heating block of the aggregometer. Baseline (100% aggregation) was set up using PPP (500 μl in a siliconised cuvette). The PRP was placed into a measuring well of the aggregometer, and a stir bar was added. The sample was stirred at 1000 rpm. The machine was activated to set the 0% aggregation level. Test compound or vehicle (50 μl) was added to the PRP, where any effects on the baseline was noted. PAF (100 ng.ml^-1 as 50 μl aliqout) was added to the PRP 3 minutes after test compound or vehicle. Aggregation was measured for a further 4 minutes after PAF addition and the maximum aggregation over the 4 minutes was recorded.
The investigation of different concentrations of test compound was performed in triplicate. Data were expressed as […] of the sample and test compound data were compared to vehicle data to obtain % inhibition of the PAF-induced aggregation from which IC50 values could be determined.
PAF was made up in sterile saline (NaCl 0.9% w/v) containing BSA (0.25% w/v) from an initial stock solution (10 mg.ml^-1 in EtOH). Test compounds were made up as 1×10^-3 M stock solutions in sterile saline containing molar equivalents of 1N HCI (v/v) or in DMSO.

[3] = system: Histamine Induced Bronchoconstriction; assay: Histamine Induced Bronchoconstriction in the Anaesthetised Guinea Pig; type: in vivo, guinea pig (male Dunkin-Hartley); details: Cavia porcellus, 1 h, p.o., histamine infusion 10 μgkg^-1 min^-1 started one hour after oral dosing
Text: Histamine Induced Bronchoconstriction in the Anaesthetised Guinea Pig
(§1) Following oral administration of test compound or vehicle by oral gavage, male Dunkin-Hartley guinea pigs (350-400 g) were anaesthetised by intraperitoneal injection of 60 mgkg^-1 sodium pentobarbitone (Sagatal, May & Baker UK). Through a midline incision of the neck, the trachea was cannulated and connected to a small animal respirator (Harvard, UK). Animals were artificially ventilated at a rate of 30 breaths per minute with a tidal volume of 8-10 ml to give a resting tracheal inflation pressure of 15 mmHg as measured by a physiological pressure transducer (type P23XL, Spectramed USA) connected to a side arm of the respiratory circuit.
A jugular vein was cannulated for the administration of propranolol and for the infusion of histamine. A carotid artery was cannulated for the measurement of arterial blood pressure via a physiological pressure transducer (type P23XL, Spectramed USA). Blood pressure and tracheal inflation pressure were recorded on a thermal array chart recorder (type TA4000, Gould Electronics UK).
Following a suitable equilibration period, propranolol (1 mgkg^-1 i.v. & 3 mgkg ^-1 s.c. Sigma Chemical Co. UK) was administered to inhibit any resulting catecholamine release following histamine administration.
Histamine infusion (10 μgkg^-1 min^-1 at a rate of 10 mlhr^-1 using a perfusion pump type Perfuser securer FT, B. Braun Germany) was started at the one hour time point following oral administration of the test compound or vehicle. Changes in tracheal inflation pressure and blood pressure of drug treated animals were compared with changes from vehicle treated animals and ED50 values determined. One dose of test compound was investigated per animal.

[4] = system: PAF Induced Bronchoconstriction; assay: PAF Induced Bronchoconstriction in the Anaesthetised Guinea Pig; type: in vivo, guinea pig (male Dunkin-Hartley); details: 10 mgkg^-1, p.o., PAF 100 ngkg^-1 i.v. bolus one hour after oral dosing
Text: PAF Induced Bronchoconstriction in the Anaesthetised Guinea Pig
as §1, with “vehicle,” for “vehicle by oral gavage,”, “15mmHg” for “15 mmHg”
A jugular vein was cannulated for the administration of a bolus dose of propranolol and for the later administration of bolus PAF. A carotid artery cannulated for the measurement of arterial blood pressure via a physiological pressure transducer (type P23XL, Spectramed USA). Blood pressure and tracheal inflation pressure were recorded on a thermal array chart recorder (type TA4000, Gould Electronics UK).
Propranolol (1 mgkg^-1 i.v. & 3 mgkg^-1 s.c. Sigma Chemical Co. UK) was administered 10 minutes before PAF in order to prevent the bronchodilatory activity of catecholamines which may be released in response to PAF administration. PAF (100 ngkg^-1 i.v. bolus) was administered at the one hour time point following oral administration of the test compound or vehicle.
Changes in tracheal inflation pressure and blood pressure of drug treated animals were compared with changes from vehicle treated animals and percentage inhibition determined. One dose of test compound was investigated per animal.

T1 sequence (P35367 whole entry): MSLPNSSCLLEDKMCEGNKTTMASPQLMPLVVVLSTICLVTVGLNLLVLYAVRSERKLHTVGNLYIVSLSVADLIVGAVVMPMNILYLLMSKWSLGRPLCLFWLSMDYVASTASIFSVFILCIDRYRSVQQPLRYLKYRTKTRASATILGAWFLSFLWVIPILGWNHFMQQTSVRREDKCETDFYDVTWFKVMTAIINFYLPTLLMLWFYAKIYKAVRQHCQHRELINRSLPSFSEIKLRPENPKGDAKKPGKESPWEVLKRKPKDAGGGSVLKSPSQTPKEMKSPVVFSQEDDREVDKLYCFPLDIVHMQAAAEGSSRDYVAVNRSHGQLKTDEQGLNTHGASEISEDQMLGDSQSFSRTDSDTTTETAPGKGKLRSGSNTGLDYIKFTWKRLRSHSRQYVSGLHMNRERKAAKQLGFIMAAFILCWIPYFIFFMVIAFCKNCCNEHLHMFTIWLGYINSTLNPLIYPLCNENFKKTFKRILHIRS

Row | SMILES | activity at 1 µM [1] | IC50 [2] | ED50 [3] | % Inhibition [4]
1 | Cc1nc2cnccc2n1Cc1ccc(S(=O)(=O)N(C)[C@@H](CC(C)C)C(=O)OC(CCCN2CCC(C(O)(c3ccccc3)c3ccccc3)CC2)c2ccc(C(C)(C)C)cc2)cc1 (stereo partly drawn) [Example 2, N-Methyl-N-4-(1H-2-methylimidazo[4,5-c]pyridinylmethyl)-phenylsulphonyl-L-leucine-2-(4-[1,1-dimethylethyl]phenyl)-4-(hydroxydiphenylmethyl)-1-piperidinebutyl ester] | 57% | 2100 nM | – | –
2 | Cc1nc2cnccc2n1Cc1ccc(S(=O)(=O)N(C)[C@@H](CC(C)C)C(=O)OCCCN2CCN(C(c3ccccc3)c3ccccc3)CC2)cc1 [Example 4, N-Methyl-N-4-(1H-2-methylimidazo[4,5-c]pyridinylmethyl)-phenylsulphonyl-L-leucine-3-(4-benzhydryl-piperazin-1-yl)-propyl ester] | 34% | 190 nM | – | –
3 | Cc1nc2cnccc2n1Cc1ccc(S(=O)(=O)N(C)[C@@H](CC(C)C)C(=O)N2CCC(=C3c4ccc(Cl)cc4CCc4cccnc43)CC2)cc1 [Example 6, 4-(8-Chloro-5,6-dihydro-11H-benzo[5,6]cyclohepta[1.2-b]-pyridin-11-ylidene)-1-(N-methyl-N-4-{1H-2-methylimidazo[4,5-c]pyridinylmethyl}-phenylsulphonyl-L-leucyl)-piperidine amide] | 79% | 252 nM | 6.5 mg/kg | 40%
4 | Cc1ccc(/C(=C\CN2CCCC2)c2cccc(/C=C/C(=O)OC[C@H](CC(C)C)N(C)S(=O)(=O)c3ccc(Cn4c(C)nc5cnccc54)cc3)n2)cc1 [Example 8, (E)-3-(6-[Pyrrolidino-1-{4-tolyl}prop-1E-enyl]-2-pyridyl)acrylic acid, N-methyl-N-4-(1H-2-methylimidazo[4,5-c]pyridinylmethyl)-phenylsulphonyl-L-leucyl ester] | – | – | 0.16 mg/kg | 46%
5 | Cc1ccc(/C(=C\CN2CCCC2)c2cccc(/C=C/COC(=O)[C@H](CC(C)C)N(C)S(=O)(=O)c3ccc(Cn4c(C)nc5cnccc54)cc3)n2)cc1 [Example 17, 4-Methyl-2-{methyl-[4-(2-methyl-imidazo[4,5-c]pyridin-1-ylmethyl)-phenylsulphonyl]-amino}-pentanoic acid-(E)-3-(6-[3-pyrrolidino-1-{4-tolyl}-prop-1E-enyl]-pyridin-2-yl)-prop-2-en-1-yl ester] | 47% | 115 nM | – | –
6 | CCOC[C@H](CC(C)C)N(CCCN(C)CCC(c1ccc(Cl)cc1)c1ccccn1)S(=O)(=O)c1ccc(Cn2c(C)nc3cnccc32)cc1 (stereo partly drawn) [Example 23, N-(3-{[3-(R,S)-(4-Chlorophenyl)-3-pyridin-2-yl-propyl]-methylamino}propyl)-N-(S)-(1-ethoxymethyl-3-methylbutyl)-4-(1H-2-methylimidazo[4,5-c]pyridin-1-ylmethyl)-phenylsulphonamide] | 33% | 300 nM | – | –
7 | CCOC[C@H](CC(C)C)N(C/C=C/c1cccc(/C(=C/CN2CCCC2)c2ccc(C)cc2)n1)S(=O)(=O)c1ccc(Cn2c(C)nc3cnccc32)cc1 [Example 25, N-(S)-(1-Ethoxymethyl-3-methylbutyl)-N-{(E)-3-(6-[3-pyrrolidino-1-{4-tolyl}-prop-1E-enyl]-pyridin-2-yl)-prop-2-en-1-yl}-4-(1H-2-methylimidazo[4,5-c]pyridin-1-ylmethyl)-phenylsulphonamide] | 55% | 420 nM | 0.5 mg/kg | 50%
